A word on the IC50: it is the concentration that inhibits the measured activity by half.

The record followed here is patent US5587479A, “Basic derivatives of glutamic acid and aspartic acid as gastrin or cholecystokinin antagonists” (priority 1992, dated 1996).

The test system of test [1] is acid secretion induced by pentagastrin. Kind of test: Activity against gastric secretion stimulated with pentagastrin in the anaesthetized rat. The class given is in vivo. As to conditions: for ED50: iv, anaesthetized rat, pentagastrin 30 mcg/kg/h, I.V. bolus, read-out: Antagonistic activity (ID50) towards acid secretion induced by pentagastrin. The method, then:
The investigation of the activity against gastric secretion performed by the compounds of the invention by means of an antigastrin mechanism was carried out in vivo in anaesthetized rats with the use of male animals weighing about 200 g. Gastric secretion was stimulated with pentagastrin and the method of K. S. Lai [Gut 5, (1964), 327-341] was used, slightly modified.
After tracheotomy, the oesophagus and duodenum were cannulated. Perfusion was carried out with a tepid solution (37° C.) of 0.25 mM NaOH which was passed through the stomach by means of a peristaltic pump at a constant flow rate of 1 ml/minute. After stabilization for 20 minutes, the stimulant, dissolved in a physiological solution, was perfused for 120 minutes at a dose of 30 mcg/kg/h in a volume of 0.95 ml/hour. After perfusion for 60 minutes (the basal simulation), the product under test was administered intravenously (I.V.) as a bolus and the perfusion of the stimulant was continued for a further 60 minutes. The acid secretion was recorded continuously as a function of time.
The activity of the product was evaluated as the percentage reduction in the secreted acidity after the administration of the product compared with the basal acidity measured during the first 60 minutes of collection in the presence of pentagastrin alone.

The target in test [2] is T1, central CCK-B receptors (guinea pig cortical membrane) (Cavia porcellus, UniProt H0VZC5).
T1 construct: Cerebral cortices of white male guinea pigs were therefore used; from tissue; host or cells: guinea pig cerebral cortex membranes
T1 sequence (H0VZC5 1-426): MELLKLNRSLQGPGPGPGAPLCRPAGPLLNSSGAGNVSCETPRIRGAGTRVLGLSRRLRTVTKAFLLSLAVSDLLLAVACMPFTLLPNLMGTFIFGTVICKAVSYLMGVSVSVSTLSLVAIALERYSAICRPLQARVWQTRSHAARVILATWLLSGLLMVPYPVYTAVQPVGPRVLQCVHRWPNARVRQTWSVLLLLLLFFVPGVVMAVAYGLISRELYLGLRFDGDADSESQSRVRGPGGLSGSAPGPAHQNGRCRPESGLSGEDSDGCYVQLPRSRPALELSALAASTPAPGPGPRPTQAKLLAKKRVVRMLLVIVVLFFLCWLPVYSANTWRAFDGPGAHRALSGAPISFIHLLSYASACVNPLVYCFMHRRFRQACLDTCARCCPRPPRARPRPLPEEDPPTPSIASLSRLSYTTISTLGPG
The test is described as follows: Inhibition of binding of (3-H)[N-methyl-N-leucine]CCK-8 to guinea pig cortical membranes (anti-CCK-B). The method, then:
Cerebral cortices of white male guinea pigs were therefore used, according to the method mentioned above, so as to obtain a membrane content/ml corresponding to about 300 mcg of proteins/mi. The membranes were incubated together with the radioactive tracer and the compounds under test for 150 minutes at 25° C. After the supernatant liquid had been discarded, the radioactivity associated with the pellet was determined with a liquid scintillator.

For test [3], the system named is guinea-pig ureters. Kind of test: Antispastic activity in vitro: spontaneous motility of guinea-pig ureters. The following applies: for IC50: Cavia porcellus, five minutes contact, 37° C. The text has this:
The isotonic contractions were detected by means of a force transducer and recorded. […] A given concentration of the product under test was then introduced into the bath and left in contact with the prepared specimen for five minutes, after which the ureter was washed until its own spontaneous activity was re-established.

Test [4] concerns mouse. Kind of test: Anxiolytic activity in the mouse, Black and White Box test. The format is in vivo. As to conditions: for TOTAL MOV.: five minutes. The method, then: In order to confirm the hypothesis that the potent activity of some of the compounds of the invention against central CCK-B may be correlated with a possible anxiolytic activity, this potential activity was evaluated in the mouse with the use of the "Black and White Box test". This experimental model, which was carried out according to Costall et al. [Pharm. Biochem. Behav. 32 (1989), 777-785] used a box with dimensions of 45×21×21 (h) cm. divided into two compartments which communicated with each other by means of a 13×5 cm hole. The smaller compartment (1/3 of the total area) had black walls, whereas the larger had transparent walls and was illuminated by a lamp which was placed 20 cm above the box and supplied light at 20 W. Under the floor was an activity meter which registered the movements performed by the animal in the individual compartments. The experiment was started by placing the animal in the centre of the illuminated box; as well at its movements, the time which the animal spent in the dark and in the light and the number of times it moved between the 2 compartments were recorded for five minutes. In general, a control animal tended preferably to stay in the dark compartment where it felt better protected from an unusual enviromental situation which put it in a state of anxiety. In this experimental model ( see the reference cited above), a compound having anxiolytic activity decreased the % of movements into the dark in comparison with the total movements, increased the movements between the two light-dark compartments, and increased the % of the total time time spent in the light. The results obtained are given in Table 5 below in which the activities obtained with the compound 1 (the rectus series ) and its enantiomer 2 (sinister) tested in comparison with diazepam and the CCK-B antagonist L365-260.

The target of test [5] is T2, cholecystokinin receptors of the pancreatic cells of the rat (CCK-A) (Rattus norvegicus, UniProt P30551).
T2 construct: The pancreatic cells of the rat were prepared as described by Makovec et al; from tissue; host or cells: rat pancreatic cells
T2 sequence (P30551 1-444): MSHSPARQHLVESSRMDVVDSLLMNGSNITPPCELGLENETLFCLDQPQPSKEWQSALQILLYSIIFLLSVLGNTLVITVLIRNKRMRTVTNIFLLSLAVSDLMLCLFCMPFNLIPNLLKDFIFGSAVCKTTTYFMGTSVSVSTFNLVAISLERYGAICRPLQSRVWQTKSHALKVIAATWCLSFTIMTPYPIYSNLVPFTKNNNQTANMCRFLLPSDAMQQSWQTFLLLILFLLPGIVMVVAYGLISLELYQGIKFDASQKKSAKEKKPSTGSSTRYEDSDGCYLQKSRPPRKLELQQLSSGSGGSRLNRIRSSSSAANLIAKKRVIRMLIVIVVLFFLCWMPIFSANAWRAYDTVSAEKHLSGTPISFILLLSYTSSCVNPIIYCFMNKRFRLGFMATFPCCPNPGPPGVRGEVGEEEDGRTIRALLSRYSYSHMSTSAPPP
Kind of test: Inhibition of the binding of [125-I]-[Bolton-Hunter]-CCK-8 to rat pancreatic cells (anti-CCK-A). As to conditions: for IC50: 30 minutes at 37° C., read-out: IC50, inhibition of the binding of (125-I)(B-H)-CCK-8 to the pancreatic cells of the rat. The procedure: The pancreatic cells of the rat were prepared as described by Makovec et al. (reference cited) so as to produce about 5×10^6 cells/mi. The cells were then incubated together with the radioactive tracer and the compounds under test for 30 minutes at 37° C.
After the supernatant liquid had been discarded, the radioactivity associated with the pellet was determined with a gamma counter (80% efficiency).

Setting [6] is: IC50, inhibition of binding of (3-H)[N-methyl-N-leucine]CCK-8 to the guinea pig cortical membrane, 150 minutes at 25° C.
Where [7] appears, read: force of the contractions, read-out: IC50 (force), inhibition of the spontaneous motility of guinea-pig ureters in vitro.
[8] abbreviates: frequency of the contractions, read-out: IC50 (frequency), inhibition of the spontaneous motility of guinea-pig ureters in vitro.

Values after ≈ are worked out from the molar mass of the structure shown. Where two headings read alike, the source gives them in different places. Bounds are passed on as bounds.

Regarding `CN1CCN(C(=O)CC[C@H](NC(=O)c2cc(Cl)cc(Cl)c2)C(=O)N2CCC3(CCCC3)CC2)CC1` [Compound 2], the ED50 in test [1] was determined as 24.8 mg/kg. The same compound gave an IC50 in test [2] (setting [6]) of over 100 µM. The IC50 in test [2] (read-out: IC50, binding to guinea-pig cortical membranes) is over 1 µM. For the same compound, the IC50 in test [3] (setting [7]) came to 25 µg/mL (≈ 47.8 µM). In test [3] (setting [8]), the IC50 is 20 µg/mL (≈ 38.2 µM). In test [4] (0.1 mg/kg IP), the “LIGHT TIME (%) TOTAL TIME” value was determined as 28.3%, the “LIGHT TIME (%) TOTAL TIME: % EFF.VS CONTROL” value was determined as 0%, the “LIGHT-DARK MOVEMENTS” value was found to be 13.2 and the “LIGHT-DARK MOVEMENTS: % EFF. VS CONTROL” value is 0%. In addition, in test [4] (0.1 mg/kg IP), the “MOV. DARK (%) TOTAL MOV.” value was determined as 50%, the “MOV. DARK (%) TOTAL MOV.: % EFF. VS CONTROL” value was -4% and the “TOTAL MOV.” value is given as 477. Besides, in test [4] (1 mg/kg IP), the “LIGHT TIME (%) TOTAL TIME” value worked out at 27.5%, the “LIGHT TIME (%) TOTAL TIME: % EFF.VS CONTROL” value turned out to be 0%, the “LIGHT-DARK MOVEMENTS” value is 12.8 and the “LIGHT-DARK MOVEMENTS: % EFF. VS CONTROL” value was determined as 0%. Also, in test [4] (1 mg/kg IP), the “MOV. DARK (%) TOTAL MOV.” value is 50%, the “MOV. DARK (%) TOTAL MOV.: % EFF. VS CONTROL” value was -4% and the “TOTAL MOV.” value amounted to 462. Besides, the “anxiolytic activity in the Black and White Box test (in words)” value in test [4] (IP) was “completely inactive”.

With `CN1CCN(C(=O)CC[C@@H](NC(=O)c2cccc(Cl)c2)C(=O)NCCC(C)(C)C)CC1` [Compound 23], in test [1], the ED50 was 25 mg/kg. The IC50 in test [2] (setting [6]) was over 100 µM.

As for `CCCCCN(CCCCC)C(=O)[C@@H](CCC(=O)O)NC(=O)c1ccc(Cl)c(Cl)c1` [R-lorglumide, reference compound], the IC50 in test [2] (setting [6]) was 9.2 µM. The “times more active than the compound 59 (CCK-A binding)” value in test [5] (rat pancreatic cells) is “about 25 times”.

In the case of `O=C(CC[C@@H](NC(=O)c1cc(Cl)cc(Cl)c1)C(=O)N1CCC2(CCCC2)CC1)NCCN1CCOCC1` [Compound 3], the ED50 in test [1] is 12.8 mg/kg. Also, the IC50 amounted to 2.8 µM in test [2] (setting [6]), 4.5 µg/mL (≈ 8.13 µM) in test [3] (setting [7]) and 4.3 µg/mL (≈ 7.77 µM) in test [3] (setting [8]). In test [3], the “activity on guinea-pig ureters (in words)” value is on record as “extremely active”.

In the case of `CCCCCN(CCCCC)C(=O)C(CCC(=O)O)NC(=O)c1ccc(Cl)c(Cl)c1` (stereo not drawn) [lorglumide, reference compound], the “antigastrin activity (in words)” value in test [1] (rat, up to a dose of 100 mg/kg) was “completely inactive”.

Turning to `CCC(C)(CC)CCNC(=O)C(CC(=O)NCCN1CCOCC1)NC(=O)c1cccc(Cl)c1` (stereo not drawn) [Compound 68], in test [1], the ED50 stood at 31 mg/kg.

Turning to `CCCN(CCC)C(=O)C(CCC(=O)O)NC(=O)c1ccccc1` (stereo not drawn) [proglumide, reference compound], in test [1], the ED50 was 500 mg/kg.

As to `CCCCCN(CCCCC)C(=O)C(CCC(=O)NCCN1CCOCC1)NC(=O)c1ccc(C)c(C)c1` (racemic) [Compound 44, (RS) 1-[4'-(ethylenamino)morpholinyl]-1-oxo-4-[(3,4-dimethylbenzoyl)-amino]-5-(dipentylamino) -5-oxopentane], the IC50 in test [2] (setting [6]) was 65.4 µM; in test [3] (setting [7]), 5 µg/mL (≈ 9.42 µM); in test [3] (setting [8]), 4 µg/mL (≈ 7.54 µM). Further, the “activity on guinea-pig ureters (in words)” value in test [3] was “extremely active”.

With `CN1CCN(C(=O)C[C@@H](NC(=O)c2cc(Cl)cc(Cl)c2)C(=O)N2CCC3(CCCC3)CC2)CC1` [Compound 70], the ED50 in test [1] was determined as 18.9 mg/kg.

Consider `CCCCCN(CCCCC)C(=O)[C@@H](CCC(=O)NCCN1CCOCC1)NC(=O)c1cnc2ccccc2c1` [Compound 59], for which the IC50 in test [5] was found to be 1.2 µM.

Regarding `CCCCCN(CCCCC)C(=O)[C@@H](CCC(=O)NCCN1CCOCC1)NC(=O)c1ccc2ccccc2c1` [Compound 61], the concentration for half-maximal inhibition (IC50) in test [2] (setting [6]) was 2.9 µM; in test [5], 2.8 µM; in test [3] (setting [7]), 32 µg/mL (≈ 57.9 µM); in test [3] (setting [8]), 100 µg/mL (≈ 181 µM).

Take `O=C(O)CC[C@@H](NC(=O)c1cc(Cl)cc(Cl)c1)C(=O)N1CCC2(CCCC2)CC1` [CR 2194, reference compound]: in test [1], the ED50 is 11 mg/kg. Further, the IC50 in test [2] (setting [6]) stood at 2.4 µM.

In the case of `CN1CCN(C(=O)CC[C@@H](NC(=O)c2cc(Cl)cc(Cl)c2)C(=O)N2CCC3(CCCCC3)CC2)CC1` [Compound 13], the ED50 in test [1] was determined as 8.5 mg/kg.
